{"source": "ChEMBL document CHEMBL6120968", "about": "“Discovery of Thiadiazoleamide Derivatives as Potent, Selective, and Orally Available Antagonists Disrupting Androgen Receptor Homodimer” (J Med Chem, 2024)", "key": {"NIH3T3": {"system": "NIH3T3", "assay": "Antiproliferative activity against mouse 3T3 cells assessed as reduction in cell viability incubated for 3 days by MTT assay", "format": "toxicity, cell-based", "details": "nih3t3, 72 h, time 3 day"}, "Androgen receptor": {"biological_target": "Androgen receptor (Homo sapiens, UniProt P10275, W742C)", "sequence (P10275 whole entry W742C)": "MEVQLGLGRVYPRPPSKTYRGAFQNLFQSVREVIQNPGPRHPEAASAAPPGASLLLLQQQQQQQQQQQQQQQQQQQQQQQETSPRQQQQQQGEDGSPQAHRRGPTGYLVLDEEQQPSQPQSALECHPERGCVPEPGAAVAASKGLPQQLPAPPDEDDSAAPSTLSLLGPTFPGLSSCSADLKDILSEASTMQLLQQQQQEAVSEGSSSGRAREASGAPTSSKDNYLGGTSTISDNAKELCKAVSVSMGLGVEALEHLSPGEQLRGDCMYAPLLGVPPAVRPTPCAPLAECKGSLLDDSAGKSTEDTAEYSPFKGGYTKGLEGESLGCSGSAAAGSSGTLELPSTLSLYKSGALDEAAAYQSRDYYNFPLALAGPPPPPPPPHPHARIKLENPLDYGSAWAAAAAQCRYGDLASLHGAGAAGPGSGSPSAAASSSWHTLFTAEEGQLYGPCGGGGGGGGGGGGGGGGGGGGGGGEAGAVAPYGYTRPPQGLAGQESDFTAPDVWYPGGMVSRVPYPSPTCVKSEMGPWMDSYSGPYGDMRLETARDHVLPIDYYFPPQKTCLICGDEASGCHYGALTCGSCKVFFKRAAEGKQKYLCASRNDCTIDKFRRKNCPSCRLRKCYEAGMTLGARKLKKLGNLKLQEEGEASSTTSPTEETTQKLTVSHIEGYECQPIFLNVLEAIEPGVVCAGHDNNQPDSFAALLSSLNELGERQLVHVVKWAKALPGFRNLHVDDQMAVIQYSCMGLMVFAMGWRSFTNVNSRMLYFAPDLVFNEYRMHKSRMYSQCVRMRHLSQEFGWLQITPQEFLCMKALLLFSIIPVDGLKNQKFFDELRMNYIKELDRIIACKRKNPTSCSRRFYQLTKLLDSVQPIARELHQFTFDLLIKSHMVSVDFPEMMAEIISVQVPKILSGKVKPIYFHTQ", "assay": "Antagonist activity at Androgen receptor W742C mutant in human HEK293T cells cotransfected with MMTV-luc and renilla plasmid incubated for 24 hrs by Dual luciferase assay", "format": "cell-based"}, "[1]": {"biological_target": "T1, Mineralocorticoid receptor (Homo sapiens, UniProt P08235)", "T1 sequence (P08235 whole entry)": "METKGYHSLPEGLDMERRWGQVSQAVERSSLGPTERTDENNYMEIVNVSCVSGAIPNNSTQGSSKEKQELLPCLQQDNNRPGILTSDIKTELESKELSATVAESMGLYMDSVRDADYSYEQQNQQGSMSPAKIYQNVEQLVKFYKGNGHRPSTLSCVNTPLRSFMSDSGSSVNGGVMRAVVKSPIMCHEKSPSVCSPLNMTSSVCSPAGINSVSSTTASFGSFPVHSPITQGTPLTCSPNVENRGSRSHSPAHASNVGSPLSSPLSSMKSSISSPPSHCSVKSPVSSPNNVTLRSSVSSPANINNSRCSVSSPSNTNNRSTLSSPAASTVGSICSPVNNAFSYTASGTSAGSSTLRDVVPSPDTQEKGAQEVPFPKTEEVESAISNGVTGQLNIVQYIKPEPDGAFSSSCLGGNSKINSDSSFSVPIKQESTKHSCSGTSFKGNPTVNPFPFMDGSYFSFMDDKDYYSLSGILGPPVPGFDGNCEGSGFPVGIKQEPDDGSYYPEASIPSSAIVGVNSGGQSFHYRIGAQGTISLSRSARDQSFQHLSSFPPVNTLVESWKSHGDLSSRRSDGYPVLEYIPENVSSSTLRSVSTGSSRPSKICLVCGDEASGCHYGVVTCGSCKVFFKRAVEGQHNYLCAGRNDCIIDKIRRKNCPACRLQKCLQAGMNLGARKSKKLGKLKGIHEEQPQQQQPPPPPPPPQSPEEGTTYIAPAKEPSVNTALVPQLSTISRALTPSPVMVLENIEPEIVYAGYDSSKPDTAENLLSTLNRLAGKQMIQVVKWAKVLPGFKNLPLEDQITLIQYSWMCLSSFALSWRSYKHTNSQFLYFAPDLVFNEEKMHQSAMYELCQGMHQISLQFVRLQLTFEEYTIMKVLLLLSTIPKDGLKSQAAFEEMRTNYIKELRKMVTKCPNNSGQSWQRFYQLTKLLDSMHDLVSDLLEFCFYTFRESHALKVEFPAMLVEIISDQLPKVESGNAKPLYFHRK", "assay": "Agonist activity at Mineralocorticoid receptor (unknown origin)"}, "[2]": {"assay": "Observed apparent oral clearance in rat at 20 mg/kg, po by LC-MS/MS analysis", "format": "ADME, organism-based", "details": "in vivo"}, "[3]": {"assay": "Half life in rat at 20 mg/kg, po by LC-MS/MS analysis", "format": "ADME, organism-based", "details": "in vivo"}, "[4]": {"assay": "Half life in rat at 20 mg/kg, iv by LC-MS/MS analysis", "format": "ADME, organism-based", "details": "in vivo"}, "[5]": {"assay": "AUC (0 to infinity) in rat at 20 mg/kg, po by LC-MS/MS analysis", "format": "ADME, organism-based", "details": "in vivo"}, "[6]": {"assay": "AUC (0 to infinity) in rat at 20 mg/kg, iv by LC-MS/MS analysis", "format": "ADME, organism-based", "details": "in vivo"}, "[7]": {"assay": "Observed apparent volume of distribution during terminal phase in rat at 20 mg/kg, iv by LC-MS/MS analysis", "format": "ADME, organism-based", "details": "in vivo"}, "[8]": {"assay": "Observed apparent oral clearance in rat at 20 mg/kg, iv by LC-MS/MS analysis", "format": "ADME, organism-based", "details": "in vivo"}, "[9]": {"assay": "MRTlast in rat at 20 mg/kg, iv by LC-MS/MS analysis", "format": "ADME, organism-based", "details": "in vivo"}, "[10]": {"assay": "Microsomal stability in human liver microsome assessed as half life measured upto 60 mins in presence of NADPH and UDPGA by HPLC-MS/MS analysis", "format": "ADME", "details": "liver microsomes"}, "[11]": {"assay": "Microsomal stability in rat liver microsome assessed as half life measured upto 60 mins in presence of NADPH and UDPGA by HPLC-MS/MS analysis", "format": "ADME", "details": "liver microsomes"}, "[12]": {"assay": "Microsomal stability in mouse liver microsome assessed as half life measured upto 60 mins in presence of NADPH and UDPGA by HPLC-MS/MS analysis", "format": "ADME", "details": "liver microsomes"}, "[13]": {"assay": "Microsomal stability in human liver microsome assessed as intrinsic clearance measured upto 60 mins in presence of NADPH and UDPGA by HPLC-MS/MS analysis", "format": "ADME", "details": "liver microsomes, read-out: CLH"}, "[14]": {"assay": "Microsomal stability in Beagle dog liver microsome assessed as intrinsic clearance measured upto 60 mins in presence of NADPH and UDPGA by HPLC-MS/MS analysis", "format": "ADME, Canis lupus familiaris", "details": "liver microsomes, read-out: CLH"}, "[15]": {"assay": "Microsomal stability in rat liver microsome assessed as intrinsic clearance measured upto 60 mins in presence of NADPH and UDPGA by HPLC-MS/MS analysis", "format": "ADME", "details": "liver microsomes, read-out: CLH"}, "[16]": {"assay": "Microsomal stability in mouse liver microsome assessed as intrinsic clearance measured upto 60 mins in presence of NADPH and UDPGA by HPLC-MS/MS analysis", "format": "ADME", "details": "liver microsomes, read-out: CLH"}, "[17]": {"assay": "Microsomal stability in monkey liver microsome assessed as parent compound remaining at 60 mins in presence of NADPH and UDPGA by HPLC-MS/MS analysis", "format": "ADME, Macaca mulatta", "details": "rhesus monkey, liver microsomes, read-out: Stability"}, "[18]": {"assay": "Microsomal stability in Beagle dog liver microsome assessed as parent compound remaining at 60 mins in presence of NADPH and UDPGA by HPLC-MS/MS analysis", "format": "ADME, Canis lupus familiaris", "details": "liver microsomes, read-out: Stability"}, "[19]": {"assay": "Microsomal stability in mouse liver microsome assessed as parent compound remaining at 60 mins in presence of NADPH and UDPGA by HPLC-MS/MS analysis", "format": "ADME", "details": "liver microsomes, read-out: Stability"}, "[20]": {"assay": "Acute toxicity in po dosed male CB17.SCID mouse implanted with human LNCaP cells assessed as body weight loss measured within 14 days", "format": "organism-based", "details": "in vivo, time 14 day"}, "[21]": {"assay": "Acute toxicity in male CB17.SCID mouse implanted with human LNCaP cells assessed as body weight loss at 1250 mg/kg, po measured within 14 days", "format": "organism-based", "details": "in vivo, 336 h, time 14 day"}, "[22]": {"assay": "Acute toxicity in male CB17.SCID mouse implanted with human LNCaP cells assessed as abnormal behavior at 1250 mg/kg, po measured within 14 days", "format": "organism-based", "details": "in vivo, 336 h, time 14 day"}}}
{"molecule": "Cc1oc(-c2cccc(C(F)(F)F)c2)cc1C(=O)Nc1nc(CN2CCOCC2)ns1", "values": [{"measurement": "Activity", "setting": "NIH3T3", "result": "Non-toxic"}, {"measurement": "IC50", "setting": "Androgen receptor", "result": 0.24, "unit": "µM"}, {"measurement": "IC50", "setting": "[1]", "result": "> 10", "unit": "µM"}, {"measurement": "CL/F", "setting": "[2]", "result": 1.04, "unit": "L/h/kg"}, {"measurement": "half-life", "setting": "[3]", "result": 6.86, "unit": "h"}, {"measurement": "half-life", "setting": "[4]", "result": 7.84, "unit": "h"}, {"measurement": "AUC(0-inf)", "setting": "[5]", "result": 22.1, "unit": "µg·h/mL"}, {"measurement": "AUC(0-inf)", "setting": "[6]", "result": 35.8, "unit": "µg·h/mL"}, {"measurement": "Vz/F_obs", "setting": "[7]", "result": 6.8, "unit": "L/kg"}, {"measurement": "CL/F", "setting": "[8]", "result": 0.61, "unit": "L/h/kg"}, {"measurement": "MRT last", "setting": "[9]", "result": 6, "unit": "h"}, {"measurement": "half-life", "setting": "[10]", "result": 0.618, "unit": "h"}, {"measurement": "half-life", "setting": "[11]", "result": 0.494, "unit": "h"}, {"measurement": "half-life", "setting": "[12]", "result": 0.642, "unit": "h"}, {"measurement": "microsomal CLint", "setting": "[13]", "result": 18.7, "unit": "µL/min/mg"}, {"measurement": "microsomal CLint", "setting": "[14]", "result": 31.5, "unit": "µL/min/mg"}, {"measurement": "microsomal CLint", "setting": "[15]", "result": 23.4, "unit": "µL/min/mg"}, {"measurement": "microsomal CLint", "setting": "[16]", "result": 18, "unit": "µL/min/mg"}, {"measurement": "remaining at 1 h", "setting": "[17]", "result": 55.1, "unit": "%"}, {"measurement": "remaining at 1 h", "setting": "[18]", "result": 12.6, "unit": "%"}, {"measurement": "remaining at 1 h", "setting": "[19]", "result": 32.3, "unit": "%"}, {"measurement": "LD50 at 336 h", "setting": "[20]", "result": 1250, "unit": "mg/kg"}, {"measurement": "Activity", "setting": "[21]", "result": "Non-toxic"}, {"measurement": "Activity", "setting": "[22]", "result": "Non-toxic"}]}
